Test results as given in paper PMC6368574, “Probing the Inhibition of Microtubule Affinity Regulating Kinase 4 by N-Substituted Acridones” (Scientific Reports, 2019).
Read-outs that look alike come from different tables or passages of the source. Each block holds one molecule with its values, some of them ahead of it.

Tests used:
recombinant MARK4 = target: T1, recombinant MARK4 (Homo sapiens, UniProt Q96L34); assay: ATPase enzyme inhibition assay (Malachite Green); type: biochemical
T1 construct: made in house; host or cells: bacterial cells (Luria-Bertani broth, IPTG induction)
T1 sequence (Q96L34 1-752): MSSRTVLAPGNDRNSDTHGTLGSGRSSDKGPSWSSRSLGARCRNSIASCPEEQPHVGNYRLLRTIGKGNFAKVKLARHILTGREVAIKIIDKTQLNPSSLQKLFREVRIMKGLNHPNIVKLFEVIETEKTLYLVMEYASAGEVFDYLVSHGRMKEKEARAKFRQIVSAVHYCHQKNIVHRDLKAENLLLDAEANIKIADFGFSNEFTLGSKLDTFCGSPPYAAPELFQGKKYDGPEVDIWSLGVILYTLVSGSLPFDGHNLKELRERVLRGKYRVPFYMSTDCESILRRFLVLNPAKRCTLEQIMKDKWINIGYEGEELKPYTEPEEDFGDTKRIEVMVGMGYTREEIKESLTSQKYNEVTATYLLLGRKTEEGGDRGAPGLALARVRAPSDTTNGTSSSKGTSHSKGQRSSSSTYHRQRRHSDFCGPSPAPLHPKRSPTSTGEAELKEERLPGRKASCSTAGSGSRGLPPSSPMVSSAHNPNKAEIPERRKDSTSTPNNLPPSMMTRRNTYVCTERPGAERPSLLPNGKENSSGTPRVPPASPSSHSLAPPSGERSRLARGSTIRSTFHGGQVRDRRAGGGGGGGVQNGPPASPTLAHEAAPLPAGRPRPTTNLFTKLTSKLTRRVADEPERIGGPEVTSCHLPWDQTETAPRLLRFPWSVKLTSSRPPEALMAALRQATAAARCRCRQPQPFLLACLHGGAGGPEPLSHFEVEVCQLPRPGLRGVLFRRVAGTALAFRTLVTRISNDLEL
Description: To evaluate the inhibition activity of synthesized acridone derivatives against recombinant MARK4, ATPase enzyme inhibition assay was performed (Table S3). […] Our studies were initiated by replacing the ester group of 5 with sterically and electronically diverse amines affording the corresponding amides 7a–j, in order to establish favorable interactions with residues Ala135, Val70, Asp196 and/or Glu182. […] In this case, the docking studies indicate a better fit of 7h compared with 7g in the active site of MARK4 with a binding energy of −9.5 kcal/mol and a stronger predicted hydrogen bond with Ala135 (3.06 Å for 7h, 3.19 Å for 7g).
Enzyme activity of MARK4 was evaluated with the help of standard Malachite Green (Biomol Green reagent, Enzo Life Sciences) microtitre-plate assay as described earlier. Estimated amount of MARK4 (200 ng) and 20 µM ATP as a substrate were incubated for 10–15 min at 25 °C with increasing concentrations (0–20 µM) of synthesized acridone derivatives, in 20 mM Tris buffer, pH 8.0. Reaction was terminated by the adding 100 µl of Biomol Green reagent and absorbance of final reaction products was recorded at 620 nm in a multiplate ELSIA reader (BioRad). In order to quantify the hydrolyzed phosphate, inorganic phosphate standard curve were prepared from the phosphate standard solutions as supplied by the manufacturer (Biomol Green reagent, Enzo Life Sciences). All data points represent triplicate measurements from at least three independent experiments.

HepG2 cells = assay: MTT cell viability assay, HepG2; type: cell-based; conditions: Homo sapiens, Table S2
Description: Initially, all synthesized acridone derivatives were evaluated for their cytotoxicity potential on MCF-7, HepG2 and HEK293 cell lines by MTT assay. These synthesized acridone derivatives were screened in the concentration range of 0–200 µM, for 24 and 48 h. […] It was also interesting that in the studied […] concentration range these compounds don’t show considerable cytotoxicity towards HEK293 cell lines. […] Thus, compounds 5, 7b, 7d, 7f and 7h were taken for further cell based studies such as apoptosis and reactive oxygen species (ROS) production.
To study the effect of synthesized acridone derivatives on cell viability and proliferation, a standard MTT method was carried out. Cells were plated (8000–9000/well) in a 96-well plate and incubated overnight. On the next day, cells were treated with increasing concentrations (0.1–80 μM) of synthesized acridone derivatives in a final volume of 200 µl for 48 h at 37 °C in a humidified chamber. At the end of treatment time point, 20 µl of MTT solution (from 5 mg/ml stock solution in phosphate buffer saline, pH 7.4) was added to each well and incubated further for 4–5 h at 37 °C in the CO2 incubator. After stipulated time the supernatant was aspirated and the colored formazan crystal produced as a result of MTT reduction was dissolved in 100 µl of DMSO. The absorbance (A) of colored product was then measured at 570 nm on a multiplate ELISA reader (BioRad). The percentage of viable cells was calculated and used to estimate the IC50 (50% inhibitory concentration) values for each acridone derivative. For cell proliferation studies paclitaxel has been taken as positive control.

[1] = system: phosphorylation of tau protein in SH-SY5Y cells; assay: Tau-phosphorylation assay by flow cytometry; type: cell-based, human; conditions: IC50 dose, 24 h
Source text: To see the effect of most potential lead molecules (compound 7b, 7d and 7f) on the substrate protein (tau protein) of MARK4 enzyme inhibition activity studies are extended to a cell-based tau-phosphorylation assay. Cells were allowed to grow in the presence of IC50 dose of compound 7b, 7d and 7f for 24 hrs. Following the treatment, the phosphorylation of tau has been assessed with the help of flow cytometry.
To study the effect of selected lead molecules on the phosphorylation of tau protein (a substrate of MARK4) the SH-SY5Y cells were treated with IC50 dose of compound 7b, 7d and 7 f for 24 h and subjected to FACS based analysis as per our previously published protocols[17],[50].

[2] = ATPase inhibition, 20 µM ATP, read-out: IC50 against MARK4
[3] = Table 1, from enzyme inhibition, read-out: IC50, (µM), MARK4

IC50 (recombinant MARK4; [2]): 14.1 ± 1.02 µM
IC50 (HepG2 cells): 16.4 µM
SMILES: COC(=O)Cn1c2ccccc2c(=O)c2cc(C)ccc21 [Compound 5, Methyl 2-(2-methyl-9-oxoacridin-10(9H)-yl)acetate]

IC50 (recombinant MARK4; [3]): 1.8 ± 0.04 µM
IC50 (HepG2 cells): 13.6 µM
SMILES: Cc1ccc2c(c1)c(=O)c1ccccc1n2CC(=O)NCc1ccccc1 [Compound 7b, N-benzyl-2-(2-methyl-9-oxoacridin-10(9H)-yl)acetamide]
phosphorylation level of tau protein [1]: decreases the phosphorylation level of tau protein

IC50 (recombinant MARK4; [2]): 12.1 ± 1.1 µM
IC50 (HepG2 cells): 19 µM
SMILES: COc1ccccc1NC(=O)Cn1c2ccccc2c(=O)c2cc(C)ccc21 [Compound 7h, N-(2-methoxyphenyl)-2-(2-methyl-9-oxoacridin-10(9H)-yl)acetamide]

Second part, the molecule before the results:

SMILES: Cc1ccc(NC(=O)Cn2c3ccccc3c(=O)c3cc(C)ccc32)cc1 [Compound 7f, 2-(2-Methyl-9-oxoacridin-10(9H)-yl)-N-(p-tolyl)acetamide]
IC50 (recombinant MARK4; [3]): 4.5 ± 0.52 µM
IC50 (HepG2 cells): 15.2 µM
phosphorylation level of tau protein [1]: decreases the phosphorylation level of tau protein

SMILES: COc1ccc(CNC(=O)Cn2c3ccccc3c(=O)c3cc(C)ccc32)cc1 [Compound 7d, N-(4-methoxybenzyl)-2-(2-methyl-9-oxoacridin-10(9H)-yl)acetamide]
IC50 (recombinant MARK4; [3]): 2.2 ± 0.05 µM
IC50 (HepG2 cells): 15.1 µM
phosphorylation level of tau protein [1]: decreases the phosphorylation level of tau protein
